Experimental data: patent publication US8871900B2, “Fibroblast growth factor (FGF) analogs and uses thereof” (University of Rochester, priority 2008, dated 2014)
Peptide text beside a SMILES is read from it.

Key:
ERK Pathway = assay: Phosphorylation of ERK pathway; type: cell-based
[1] = system: BM cells (megakaryocyte colony); assay: Megakaryocyte colony formation of BM cells (MegaCult-C); type: cell-based, mouse (Balb/c); details: cytokine cocktail reduced to 50%; FGF-P 100 ng/ml
Description: Survival of ARS depends on rapid reconstitution of hematopoiesis after IR-induced myelosuppression. […] However, the timing and mechanism of effect on BM stem cells is unknown. Also unclear are the number of FGFRs on hematopoietic stem cells (HSCs) and their role in reconstitution after IR. […] To characterize the effects of FGF-P on BM, the study approach was to obtain fresh BM (including both HSCs and MSCs) from Balb/c mice, and culture it under varying conditions (3 D culture or 2 D round-bottom well) in triplicate for 1-3 weeks. The BM cells were stimulated with FGF-P at different doses (as test) or with EPO, TPO, GM-CSF or native FGF2 (as a positive control). The cultures were examined using several methods including colony count, photography, CyQUANT® assay and ^3H-TdR incorporation.

[2] = system: Balb/c mice exposed to TBI; assay: Survival after TBI (BM syndrome / ARS); type: in vivo, mouse (Balb/c); details: for mice survived: Balb/c
platelet = assay: Platelet aggregation after 4 Gy TBI; type: in vivo, mouse; details: day 29 after 4 Gy TBI; FGF-P right post-IR daily for 6 day; P<0.05
Description: One of the major functions of platelet is to aggregate on the wounded site as first step to block the bleeding vessel. […] This recovery is statistically different (FIG. 18D P<0.05).

Cdc42, Rac1, Mapk10, Cfl = assay: Gene expression in irradiated BM cells (Luminex multiplex array); type: cell-based, mouse; details: treatment 20 min after 5 Gy IR, 6 hours, P<0.05
[3] = system: proliferating crypts of small intestine; assay: Crypt assay of small intestine after sub-TBI (H&E, BrdU, villi length); type: in vivo, mouse (Balb/c, C57BL/6)
Description: Enhanced proliferation of crypts in small intestine: The epithelium of the small intestine has a rapid turnover, renewing every 3-7 days. The stem cells are located ⅓ of the way up the […] and active mitosis can be seen above growing into the villus and below, forming the crypt. There are no definitive markers available to identify the stem cells, and thus the number of these cells in each crypt are unknown. When the bowel is irradiated, the number of crypts remains constant up to a dose just below the LD50/7. Above that dose, there is a log-linear decrease in the number of crypts, usually measured at 3.5 days. […] Data from the crypt assay can be augmented with injection of BrdU. BrdU can be given to animals at one or more times after irradiation to determine the rate of proliferation and rate of elongation of villi.
FGF-P was then repeated daily for 2 days. At 80 hr post-IR, BrdU (120 mg/kg) was injected ip and 4 hours later (about 3.5 days post-IR), the mice were sacrificed and the duodenal, jejunal and ileal segments (3-4 pieces/segment) were harvested, fixed in formalin, processed in paraffin blocks, cut in transverse sections of the full segment circumference (5 μm thick) and stained with H&E or anti-BrdU following the standard immunochemistry procedure (23). The proliferating crypts were defined as containing 10 or more adjacent chromophilic non-Paneth cells and a lumen. The circumference of a transverse cross-section of the intestine was used as a unit. The number of proliferating crypts was counted in each circumference. At least 10 circumferences were scored per mouse and 4-5 mice were used to generate each data point.
The villi length of duodenum, jejunum and ileum was measured using a customized Imaging Pro program.

[4] = system: epithelial cells (SW480, a cell line from colon); assay: Growth bioassay, epithelial cells; type: cell-based; details: FGF-P added to culture media
Experimental: These clusters can be counted thus allowing for measurement of relative binding coefficients. To test the feasibility of binding coefficient measurement, competition experiments were performed. Free FGF-P (30 ug/ml) was added to cells for 20 min and then the biotin-FGF-P (1 μg/mL) was added. One hour later, the streptavidin-FITC was added and analyzed by flow cytometry. […] In a third test, a bioassay was performed. FGF-P was added to culture media of two types of cells: endothelial cells (adult bovine aorta endothelium) and epithelial cells (SW480, a cell line from colon).
Three preliminary experiments were carried out using FGF-P in vitro to confirm its activity. First, the biotin conjugated FGF-P was used as a tool to examine cell surface binding. AsPC-1 pancreatic cancer epithelial cells are known to have high levels of FGFR and were used for this study. ASPC-1 cells were incubated with 1 μg/ml of biotin-FGF-P and then labeled with streptavidin-FITC. The cells were then analyzed using an imaging flow cytometer (Amnis Imagestream). This device can image each cell as it passes through the laser, and it can then sort cells according to both staining and morphological characteristics. […] These clusters were counted, allowing for measurement of relative binding coefficients. […] One hour later, streptavidin-FITC was added and analyzed by flow cytometry. […]

[5] = Plasma endotoxin (LPS) after TBI; type: in vivo, mouse; details: IR mice
Description: This relates with the FGF-P promotion of WBC regeneration. The low endotoxin indicates a low probability of endothelium damage and less consumption of platelet, which promotes the recovery of homeostasis of TBI mice.

SMILES: CC(C)C[C@H](NC(=O)[C@H](C)NC(=O)[C@@H](NC(=O)[C@H](Cc1ccc(O)cc1)NC(=O)[C@H](Cc1c[nH]c2ccccc12)NC(=O)[C@H](CO)NC(=O)[C@H](CO)NC(=O)[C@H](Cc1ccc(O)cc1)NC(=O)[C@H](CCCCN)NC(=O)[C@H](CCCNC(=N)N)NC(=O)[C@H](CO)NC(=O)[C@H](CCCNC(=N)N)NC(=O)[C@H](Cc1ccc(O)cc1)NC(=O)[C@@H](N)CS)C(C)C)C(=O)N[C@@H](CCCCN)C(=O)N[C@@H](CCCNC(=N)N)C(=O)N[C@@H](CS)C(=O)O [FGF-P, CYRSRKYSSWYVALKRC] (H-CYRSRKYSSWYVALKRC-OH; N-terminus and C-terminus assumed)
- phosphorylation of ERK pathway (ERK Pathway): triggers phosphorylation of ERK Pathway
- megakaryocyte colony formation [1]: greatly stimulated the formation of megakaryocyte colony to the level as native FGF2
- dose achieving best result ([2]; 7.1 Gy TBI, 15, 30, 60 mg/kg tested): 60 mg/kg
- dose dependence of mitigation effect ([2]; 7.1 Gy TBI, FGF-P 15, 30, 60 mg/kg): dose-dependent effect
- mitigation effect on ARS, DMF ([2]; Balb/c, 6.5, 7 and 7.5 Gy TBI, FGF-P 1 mg/kg IM right after TBI, daily for 5 days): DMF similar to that of native FGF2
- mice survived ([2]; 6.5 Gy TBI): 87%
- mice survived ([2]; 7.5 Gy TBI): 66%
- mitigation effect with delayed delivery ([2]; FGF-P given 8 hour after 7.1 Gy IR): still effective
- platelet aggregation (platelet): recovered towards normal
- expression of Cdc42 (Cdc42, Rac1, Mapk10, Cfl): reversed the IR-suppressed expression
- expression of Cfl (cofilin 1) (Cdc42, Rac1, Mapk10, Cfl): suppressed towards normal
- expression of Mapk10 (Cdc42, Rac1, Mapk10, Cfl): suppressed towards normal
- expression of Rac1 (Cdc42, Rac1, Mapk10, Cfl): reversed the IR-suppressed expression
- numbers of proliferating crypts in the bowel ([3]; 10.5 Gy sub-TBI, about 3.5 days post-IR, FGF-P 2 mg/kg im, repeated daily for 2 days): increased
- crypt survival ([3]; 10.5 Gy sub-TBI, FGF-P 2 mg/kg im): approximately doubles crypt survival
- proliferating crypts, BrdU staining method ([3]; 12 Gy, P<0.05): A similar result was obtained using the BrdU staining method
- number of proliferating crypts ([3]; 12 Gy, duodenum, jejunum, ileum, P<0.05): higher number of proliferating crypts in duodenum, jejunum and ileum
- crypt numbers in the ileum ([3]; Balb/c, 3.5 days after 12 Gy, FGF-P given after irradiation): Higher numbers of crypts
- villi length ([3]; C57BL/6, 16 Gy sub-TBI, P<0.05): better preserved villi length in the duodenum and jejunum
- crypt numbers ([3]; C57BL/6, doses as high as 16 Gy sub-TBI): improved crypt numbers in all sections of C57BL/6 small bowel
- growth of epithelium [4]: stimulated the growth of both endothelium and epithelium
- plasma level of endotoxin (LPS) [5]: reduced the LPS level
